Results as given in ChEMBL document CHEMBL5131415, “Cadiolide analogues and their precursors as new inhibitors of bacterial quorum sensing and biofilm formation” (2022).
Activity calls are given as the source filed them. The calls are words filed in the database; no cut-off is given here.

Tests used:
Escherichia coli [1] = assay: Inhibition of biofilm formation in Escherichia coli RP347 at 50 ug/ml by crystal violet staining based microtiter plate method; assay type: functional, organism-based; conditions: dose 50.0 µg/ml
Vibrio harveyi [2] = assay: Inhibition of AI-2-mediated quorum sensing system in Vibrio harveyi BB170 assessed as reduction in AI-2 production at 10 ug/ml by bioluminescence method relative to control; conditions: dose 10.0 µg/ml
Pseudomonas aeruginosa [3] = assay: Induction of biofilm formation in Pseudomonas aeruginosa PAO1 at 50 ug/ml by crystal violet staining based microtiter plate method relative to control; assay type: functional; conditions: dose 50.0 µg/ml
Escherichia coli [4] = assay: Inhibition of biofilm formation in Escherichia coli RP347 at 50 ug/ml by crystal violet staining based microtiter plate method relative to control; assay type: functional; conditions: for inhibition at 50 µg/mL: Escherichia coli, RP347, dose 50 µg/ml
Pseudomonas aeruginosa [5] = assay: Inhibition of biofilm formation in Pseudomonas aeruginosa PAO1 at 50 ug/ml by crystal violet staining based microtiter plate method relative to control; assay type: functional
Vibrio harveyi [6] = assay: Inhibition of AHL-mediated quorum sensing system in Vibrio harveyi BB886 assessed as reduction in luminescence at 10 ug/ml by bioluminescence method relative to control; conditions: dose 10.0 µg/ml
[7] = Inhibition of Escherichia coli RP347 planktonic cell growth at 50 ug/ml by microplate reader analysis relative to control; assay type: functional; conditions: RP347, dose 50 µg/ml

inhibition (Vibrio harveyi [2]) [%]	SMILES	inhibition (Escherichia coli [1])	inhibition at 50 µg/mL (Escherichia coli [4]) [%]	further results
–	COc1ccc(C2=C(C(=O)c3ccc(Br)cc3)C(=O)O/C2=C\c2ccc(Br)cc2)cc1Br	Active	–	–
100	COc1ccc(C(=O)C#Cc2ccc(Br)c(OC)c2)cc1	Active	–	Activity (Pseudomonas aeruginosa [3]): > 80%
–	O=C1O/C(=C\c2ccc(O)c(Br)c2)C(c2ccc(O)c(Br)c2)=C1C(=O)c1ccc(Br)cc1	–	100	–
> 80	COc1ccc(C2=C(C(=O)c3ccc(Br)cc3)C(=O)OC2)cc1Br	–	100	inhibition at 50 µg/mL (Pseudomonas aeruginosa [5]): 15.3%; inhibition (Vibrio harveyi [6]): 72.6%
–	O=C1O/C(=C\c2ccc(Br)cc2)C(c2ccc(O)c(Br)c2)=C1C(=O)c1ccc(Br)cc1	–	100	inhibition (INH) (Escherichia coli [4]; dose 50 µg/ml): 90%
–	COc1cc(C#CC(=O)c2ccc(Br)cc2)ccc1Br	–	75.1	inhibition at 50 µg/mL (Pseudomonas aeruginosa [5]): 29%; inhibition (Vibrio harveyi [6]): 80%
–	COc1cc(OC)c(/C=C2\OC(=O)C(C(=O)c3ccc(Br)cc3)=C2c2ccc(OC)c(Br)c2)c(OC)c1	–	100	–
99.6	O=C1O/C(=C\c2ccc(O)c(Br)c2)C(c2ccc(O)c(Br)c2)=C1C(=O)c1ccc(O)cc1	–	–	inhibition at 50 µg/mL (Pseudomonas aeruginosa [5]): 10%; inhibition at 50 µg/mL [7]: 33.4%; inhibition (Vibrio harveyi [6]): 88.7%
–	O=C1O/C(=C\c2ccc(O)c(Br)c2)C(c2ccc(O)c(Br)c2)=C1C(=O)c1cccc(Br)c1	Active	–	–
> 80	COc1ccc(C2=C(C(=O)c3cccc(Br)c3)C(=O)OC2)cc1Br	Active	81.2	Activity (Pseudomonas aeruginosa [3]): > 80%
–	COc1cccc(C2=C(C(=O)c3ccc(Br)cc3)C(=O)O/C2=C\c2ccc(Br)cc2)c1	Active	–	–
–	COc1ccc(/C=C2\OC(=O)C(C(=O)c3cccc(Br)c3)=C2c2ccc(OC)c(Br)c2)cc1Br	Active	–	–
–	O=C1O/C(=C\c2ccc(O)cc2)C(c2ccc(O)c(Br)c2)=C1C(=O)c1ccc(Br)cc1	–	100	inhibition at 50 µg/mL [7]: 61.9%
–	COc1cccc(C2=C(C(=O)c3ccc(Br)cc3)C(=O)O/C2=C\c2ccc(OC)c(Br)c2)c1	Active	–	–
100	COc1ccc(C#CC(=O)c2ccc(Br)cc2)cc1	Active	–	inhibition at 50 µg/mL (Pseudomonas aeruginosa [5]): 29%; inhibition at 50 µg/mL [7]: 82.6%
–	COc1ccc(C2=C(C(=O)c3ccc(Br)cc3)C(=O)O/C2=C\c2ccc(C(F)(F)F)cc2)cc1Br	–	–	Activity (Pseudomonas aeruginosa [3]): > 75%
–	COc1ccc(/C=C2\OC(=O)C(C(=O)c3ccc(Br)cc3)=C2c2ccc(OC)c(Br)c2)cc1Br	Active	–	inhibition (Vibrio harveyi [6]): 76.1%; Activity (Pseudomonas aeruginosa [3]): > 75%
–	COc1ccc(C(=O)C2=C(c3ccc(OC)c(Br)c3)COC2=O)cc1	Active	–	inhibition at 50 µg/mL [7]: 87.4%
–	COc1ccc(/C=C2\OC(=O)C(C(=O)c3ccc(Br)cc3)=C2c2ccc(OC)c(Br)c2)cc1	–	100	inhibition (Vibrio harveyi [6]): 78.1%
–	COc1ccc(C2=C(C(=O)c3cccc(Br)c3)C(=O)O/C2=C\c2ccc(Cl)cc2)cc1Br	–	100	Activity (Pseudomonas aeruginosa [3]): > 75%
–	COc1ccc(C(=O)C2=C(c3ccc(OC)c(Br)c3)/C(=C/c3ccc(Cl)cc3)OC2=O)cc1	Active	–	inhibition at 50 µg/mL (Pseudomonas aeruginosa [5]): 10%
100	COc1cc(C#CC(=O)c2cccc(Br)c2)ccc1Br	Active	–	–
–	COc1cccc(C2=C(C(=O)c3ccc(Br)cc3)C(=O)OC2)c1	Active	–	inhibition at 50 µg/mL (Pseudomonas aeruginosa [5]): 22.7%; inhibition at 50 µg/mL [7]: 76.5%
76.1	COc1ccc(/C=C2\OC(=O)C(C(=O)c3ccc(Br)cc3)=C2c2cccc(OC)c2)cc1	Active	–	Activity (Pseudomonas aeruginosa [3]): > 75%
74.9	COc1ccc(C(=O)C2=C(c3ccc(OC)c(Br)c3)/C(=C/c3ccc(OC)c(Br)c3)OC2=O)cc1	Active	–	–
